Reference: US4233403A, “Amylase assay” (E. I. Du Pont de Nemours and Company, priority 1978, dated 1980)
Several values for one entry are separate records, joined by “and”; a condition that tells them apart may be missing. Identical values can stand only once.

Key:
[1] = test system: α-amylase; experiment: amylase assay with nitrophenyl oligosaccharide substrate plus α-glucosidase, rate at 410 nm, standard curve; type: biochemical; settings: for Sensitivity: 4 mg/3 ml G4 pNp, 7.5 IU/3 ml α-glucosidase, pH 6.5, 37° C., 410 nm, from standard curve
Description: A sample of α-(4-nitrophenyl) maltotetraoside (G4 pNp) prepared in accordance with Example 1H of U.S. Patent Application Ser. No. 704,975, filed on the same day as this application, was dissolved in 66.7 mM sodium phosphate buffer, pH 6.5, to provide various substrate concentrations ranging from 2 to 8 mg/3 ml. As described in U.S. Ser. No. 704,975, this substrate sample has been purified using a Sephadex® LH-20 Chromatographic Column. α-Glucosidase of various concentrations ranging from 2.5 to 12.5 International Units per three milliliters of solution (IU/3 ml) was then added to the substrate solution and the volume of the solution was brought up to 3.0 ml. The solution was incubated at 37° C. for 1 to 10 minutes.
After the blank rate was measured at 410 nm, using a Gilford spectrophotometer, the reaction was initiated by adding 0.1 ml of an Elevated Enzyme Control Product sold by the E. I. du Pont de Nemours and Company (1150 Somogyi Units per deciliter (SU/dl) amylase) diluted 1:1 with Du Pont Enzyme Diluent. This level of amylase is approximately six times the upper normal serum level. The total reaction rate was then measured using the Gilford spectrophotometer, and by subtracting the blank rate from the total rate, the net reaction rate was obtained.
Using these optimum values of G4 pNp and α-glucosidase in a reaction solution of 3 ml, the reaction rates for various amylase sample concentrations were measured and a standard curve was generated. From this curve, the sensitivity in mA/min/SU/dl was measured. The standard curve for this sample is given in FIG. 1; the blank rate and sensitivity are given for this and other examples in Table II.
The G4 pNp so formed was dissolved in 66.7 mM sodium phosphate buffer, pH 6.5, to provide a substrate concentration of 4 mg/3 ml. Then 7.5 IU/3 ml of α-glucosidase was added to the substrate solution and the volume of the solution was brought up to 3.0 ml. The solution was incubated at 37° C. for one to ten minutes.
After the blank rate was measured, as described in Example 1 above, the reaction was […] by adding 0.1 ml of Du Pont Elevated Enzyme Control Product, diluted 1:1 with Du Pont Enzyme Diluent. The reaction rates for various amylase sample concentrations were measured as discussed in Example 1 above, and a standard curve was generated. From this curve, the sensitivity in mA/min/SU/dl was measured.
A sample of α-(4-nitrophenyl) maltotetraoside, prepared in accordance with Example 1G of U.S. Patent Application Ser. No. 704,975, was dissolved in 66.7 mM sodium phosphate buffer, pH 6.5, to provide a substrate concentration of 4 mg/3 ml. Then 7.5 IU/3 ml of α-glucosidase was added to the substrate solution and the volume of the solution was brought up to 3.0 ml. The solution was incubated at 37° C. for one to ten minutes.
After the blank rate was measured in a Gilford spectrophotometer at 410 nm, the reaction was initiated by adding 0.1 ml of the Du Pont Elevated Enzyme Control Product, diluted 1:1 with Du Pont Enzyme Diluent. The reaction rates for the various amylase sample concentrations were measured, using the Gilford spectrophotometer, and a standard curve was generated. From this curve, the sensitivity in mA/min/SU/dl was measured.
A sample of α-(4-nitrophenyl) maltopentaoside (G5 pNp), prepared in accordance with Example 2E of U.S. Patent Application Ser. No. 704,975, was dissolved in 66.7 mM sodium phosphate buffer, pH 6.5, to provide various substrate concentrations ranging from 4.0 to 12.0 mg/3 ml. α-Glucosidase of various activity ranging from 15 to 45 IU/3 ml was then added to the substrate solution and the volume of the solution was brought up to 3.0 ml. The solution was incubated at 37° C. for one to ten minutes.
Initial tests were conducted using 4.0 mg/3 ml G5 pNp and three α-glucosidase concentrations, 7.0, 14.0, and 28.0 IU/3 ml. […]

[2] = test system: α-glucosidase; experiment: blank rate: release of 4-nitrophenol from the substrate by the maltase without amylase; type: biochemical
Excerpt: When a maltase, such as α-glucosidase is used, a side reaction which gives rise to a blank rate occurs because of the reactivity of the maltase with the substrate. This means that even in the absence of α-amylase, there will be release of the phenol. Since the maximum velocity of product release from maltase decreases with increasing n, the growth of a blank rate is slower as n increases. One would expect, then, that the blank rate for G5 would be less than that for G4. This is verified by experimentation. However, an additional factor is involved in the choice between higher and lower oligosaccharides (i.e., G4 or G5) as the substrate. In all reactions of the substrate with amylase and reactions of maltase with the substrate, the rate increases, as a function of substrate concentration, to an optimum, at which point it levels off. The substrate concentration at which optimization occurs appears to increase with increasing n so that more of the substrate (and the maltase) must be used to optimize (linearize) the standard curve. For expensive chemicals, this is an important consideration.
A sample of α-(4-nitrophenyl) maltotetraoside (G4 pNp) prepared in accordance with Example 1H of U.S. Patent Application Ser. No. 704,975, filed on the same day as this application, was dissolved in 66.7 mM sodium phosphate buffer, pH 6.5, to provide various substrate concentrations ranging from 2 to 8 mg/3 ml. […]
After the blank rate was measured at 410 nm, using a Gilford spectrophotometer, the reaction was initiated by adding 0.1 ml of an Elevated Enzyme Control Product sold by the E. I. du Pont de Nemours and Company (1150 Somogyi Units per deciliter (SU/dl) amylase) diluted 1:1 with Du Pont Enzyme Diluent. […] The total reaction rate was then measured using the Gilford spectrophotometer, and by subtracting the blank rate from the total rate, the net reaction rate was obtained. […]
After the blank rate was measured, as described in Example 1 above, the reaction was […] by adding 0.1 ml of Du Pont Elevated Enzyme Control Product, diluted 1:1 with Du Pont Enzyme Diluent. The reaction rates for various amylase sample concentrations were measured as discussed in Example 1 above, and a standard curve was generated. From this curve, the sensitivity in mA/min/SU/dl was measured. […]
After the blank rate was measured in a Gilford spectrophotometer at 410 nm, the reaction was initiated by adding 0.1 ml of the Du Pont Elevated Enzyme Control Product, diluted 1:1 with Du Pont Enzyme Diluent. The reaction rates for the various amylase sample concentrations were measured, using the Gilford spectrophotometer, and a standard curve was generated. From this curve, the sensitivity in mA/min/SU/dl was measured. […]

[3] = test system: α-amylase; experiment: cleavage of α-(4-nitrophenyl)maltoside by α-amylase; type: biochemical, human
Description: A. P. Jansen and P. G. A. B. Wydeveld, Nature, 182, 525 (1958) postulate that α-(p-nitrophenyl)maltoside could be a substrate for an amylase assay. […] They reported: (1) Incubation of samples of human urine, saliva, duodenal contents and only incidentally serum with α-(p-nitrophenyl)maltoside at 37° for 16 hours produces 4-nitrophenol, identified spectrophotometrically by mixing the hydrolyzate with 0.02 N sodium hydroxide. (2) The hydrolysis was inhibited by protein precipitants such as 10% trichloroacetic acid and 0.5 N silver nitrate. […] In contrast to the teaching of Jansen et al., the method of this invention produces amylase analyses in one hour or less.

[4] = 4 mg/3 ml G4 pNp, 7.5 IU/3 ml α-glucosidase, 66.7 mM sodium phosphate pH 6.5, 37° C., 410 nm, no amylase

| SMILES | Sensitivity [1] [mA/min/SU/dl] | Blank Rate [2, 4] | other results |
| --- | --- | --- | --- |
| O=[N+]([O-])c1ccc(O[C@H]2O[C@H](CO)[C@@H](O[C@H]3O[C@H](CO)[C@@H](O[C@H]4O[C@H](CO)[C@@H](O[C@H]5O[C@H](CO)[C@@H](O)[C@H](O)[C@H]5O)[C@H](O)[C@H]4O)[C@H](O)[C@H]3O)[C@H](O)[C@H]2O)cc1 [Example 1, α-(4-nitrophenyl) maltotetraoside] | 0.115 | 5.0 mA/min |  |
| O=[N+]([O-])c1ccc(O[C@H]2O[C@H](CO)[C@@H](O[C@H]3O[C@H](CO)[C@@H](O[C@H]4O[C@H](CO)[C@@H](O[C@H]5O[C@H](CO)[C@@H](O)[C@H](O)[C@H]5O)[C@H](O)[C@H]4O)[C@H](O)[C@H]3O)[C@H](O)[C@H]2O)cc1 [Example 2, α-(4-nitrophenyl) maltotetraoside] | 0.231 |  |  |
| O=[N+]([O-])c1ccc(O[C@H]2O[C@H](CO)[C@@H](O[C@H]3O[C@H](CO)[C@@H](O[C@H]4O[C@H](CO)[C@@H](O[C@H]5O[C@H](CO)[C@@H](O[C@H]6O[C@H](CO)[C@@H](O)[C@H](O)[C@H]6O)[C@H](O)[C@H]5O)[C@H](O)[C@H]4O)[C@H](O)[C@H]3O)[C@H](O)[C@H]2O)cc1 [G5 pNp, α-(4-nitrophenyl) maltopentaoside] |  |  | Sensitivity (estimated, non-linear curves) ([1]; 4.0 mg/3 ml G5 pNp, α-glucosidase 7.0, 14.0, 28.0 IU/3 ml): greater than 0.160 mA/min/IU/dl; Blank Rate ([2]; 4.0 mg/3 ml G5 pNp, α-glucosidase 7.0, 14.0 and 28.0 IU/3 ml (each case), pH 6.5, 37° C.): 3.0 mA/min |
| O=[N+]([O-])c1ccc(O[C@H]2O[C@H](CO)[C@@H](O[C@H]3O[C@H](CO)[C@@H](O)[C@H](O)[C@H]3O)[C@H](O)[C@H]2O)cc1 [α-(4-Nitrophenyl)maltoside] |  |  | cleavage of this compound by α-amylase [3]: extremely slow |
| O=[N+]([O-])c1ccc(O[C@H]2O[C@H](CO)[C@@H](O[C@H]3O[C@H](CO)[C@@H](O[C@H]4O[C@H](CO)[C@@H](O[C@H]5O[C@H](CO)[C@@H](O)[C@H](O)[C@H]5O)[C@H](O)[C@H]4O)[C@H](O)[C@H]3O)[C@H](O)[C@H]2O)cc1 [Example 3, α-(4-nitrophenyl) maltotetraoside] | 0.110 | 10.3-13.3 mA/min and 10.3 to 13.3 mA/min | increase in sensitivity, end point determination after quenching ([1]; reaction quenched after five minutes with 0.2 M Na2CO3 or 0.002 N NaOH, versus rate assay at pH 6.5): five to ten fold |
| O=[N+]([O-])c1ccc(O[C@H]2O[C@H](CO)[C@@H](O[C@H]3O[C@H](CO)[C@@H](O[C@H]4O[C@H](CO)[C@@H](O[C@H]5O[C@H](CO)[C@@H](O)[C@H](O)[C@H]5O)[C@H](O)[C@H]4O)[C@H](O)[C@H]3O)[C@H](O)[C@H]2O)cc1 [Example 4, α-(4-nitrophenyl) maltotetraoside] | 0.116 | 3.0 mA/min |  |
